Data as given in US11337922B2, “Lipid particle formulations for delivery of RNA and water-soluble therapeutically effective compounds to a target cell” (BioNTech RNA Pharmaceuticals GmbH, priority 2015, dated 2022).

Tested on: Vγ9Vδ2 T cells
Assay: γ9δ2 T cell proliferation/expansion after coculture of ZA-loaded iDCs with PBLs
Format: cell-based, human
Conditions: 7-day coculture of ZA-loaded iDCs with PBLs
Method: To check the functionality of the retained compound, ZA, the expansion of γ9δ2 T cells was evaluated after cocultivation of ZA-loaded iDCs with cryopreserved PBLs.
For evaluation of ex vivo frequency of γ9δ2 T cells freshly isolated PBMCs were stained with anti-CD3, anti-TCR-Vδ2 mABs and analysed via flow cytometry. Therefore, iDCs have been incubated as indicated for 24 h in standard medium (1×10^6 cells/mL) containing 5 μM ZA.
After loading with ZA, iDCs have been centrifuged and washed with PBS. The coculture of iDCs with PBLs was setup in a ratio of 20 (iDCs): γ9δ2 T cells ex vivo. The medium was supplemented with 10 U/mL IL-2 (Proleukin). After 7-day incubation cells were harvested, washed and stained with anti-CD3, anti-TCR-Vδ2 mABs to evaluate frequency of γ9δ2 T cells and their expansion via flow cytometry. For analysis the expansion rate was determined dividing whole cell amount of γ9δ2 T cells before or after 7-day-cultivation.

SMILES: O=P(O)(O)C(O)(Cn1ccnc1)P(=O)(O)O [free ZA, zoledronic acid]
- expansion rate of Vγ9δ2 T cells: about 15 fold
